In patent US8367713B2, “Inhibition and dispersion of bacterial biofilms with imidazole-triazole derivatives” (North Carolina State University, priority 2008, dated 2013):
Where a name gives a salt, the structure may show the parent alone. Read-outs that look alike come from different tables or passages of the source.

Columns and labels:
A. baumannii biofilms = assay: Static bacterial biofilm inhibition assay (crystal violet), A. baumannii; type: cell-based, Acinetobacter baumannii; design: inhibition of A. baumannii biofilm development: dose or concentration left out as unconfirmed; settings: for IC50: read-out: IC50 of biofilm inhibition, A. baumannii
Experimental: (§1) Each 2-AIT conjugate was initially screened at 300 μM for their ability to inhibit P. aeruginosa PAO1 and PA14 biofilms, A. baumannii biofilms and B. bronchiseptica Rb50 biofilms using a crystal violet reporter assay (G. A. O'Toole, R. Kolter, Molecular Microbiology 1998, 2, 295-304). […] This is an order of magnitude increase in activity when compared to DHS (J. J. Richards, R. W. Huigens, T. E. Ballard, A. Basso, J. Cavanagh, C. Melander, Chemical Communications 2008, 14, 1698-1700). […] 6 also dispersed pre-formed A. baumanni biofilms with an EC50 of 400 μM (FIG. 2A).
(§2) General Static Bacterial Biofilm Inhibition Assay Procedure for A. baumannii, P. aeruginosa, B. bronchiseptica and S. aureus: Biofilm inhibition assays were performed by taking an overnight culture of bacterial strain and subculturing it at an OD600 of 0.01 into the necessary growth liquid medium (LB for A. baumannii, LBNS for P. aeruginosa, Stainer Scholte medium that was supplemented with […] of 100× nutrient complex for B. bronchiseptica and TSBG for S. aureus) for the strain. The compound being tested was then added at a predetermined concentration and then aliquoted (100 μL) into the wells of a 96-well PVC microtiter plate (Wells not used for samples are filled with 100 μL of de-ionized water). Plates were then wrapped in GLAD Press n′ Seal® and incubated under stationary conditions at 37° C. After 24 hours, the media was discarded from the wells and the plates were washed thoroughly with tap water. Plates were then stained with 100 μL of 0.1% solution of crystal violet (CV) and then incubated at an ambient temperature for 30 minutes. Sample plates were then washed with tap water again and the remaining stain was solubilized with 200 μl, of 95% ethanol. Biofilm inhibition was quantitated by measuring the OD540 for each well by transferring 125 μL of the solubilized CV stain into a polystyrene microtiter dish for analysis.

MRSA = assay: Biofilm inhibition at 100 μM, MRSA; type: cell-based; settings: Staphylococcus aureus, read-out: MRSA % Inhibition
Experimental: (§3) Procedure to Determine the Inhibitory Effect of Test Compounds on E. faecium, MRSA, S. epidermidis, PAO1, PA14, E. Coli and MDRAB Biofilm Formation: Inhibition assays were performed by taking an overnight culture of bacterial strain and subculturing it at an OD600 of 0.01 into the necessary media (brain heart infusion for E. faecium, tryptic soy broth with a 0.5% glucose supplement (TSBG) for MRSA, Luria-Bertani (LB) media for MDRAB, Luria-Bertani media without NaCl (LBNS) for PAO1 and PA14, Luria-Bertani (LB) media for E. coli and tryptic soy broth with a 0.5% glucose supplement and a 3.0% NaCl supplement (TGN) for S. epidermidis. Stock solutions of predetermined concentrations of the test compound were then made in the necessary media. These stock solutions were aliquoted (100 μL) into the wells of the 96-well PVC microtiter plate. Sample plates were then wrapped in GLAD Press n′ Seal® followed by an incubation under stationary conditions for 24 h at 37° C. After incubation, the media was discarded from the wells and the plates were washed thoroughly with water. Plates were then stained with 100 μL of 0.1% solution of crystal violet (CV) and then incubated at ambient temperature for 30 min. Plates were washed with water again and the remaining stain was solubilized with 200 μL of 95% ethanol. A sample of 125 μL of solubilized CV stain from each well was transferred to the corresponding wells of a polystyrene microtiter dish. Biofilm inhibition was quantitated by measuring the OD540 of each well in which a negative control lane wherein no biofilm was formed served as a background and was subtracted out.
Biofilm inhibition has been tested for the following compounds, each of which was tested at a concentration of 100 μM.

E. coli = assay: Biofilm inhibition at 100 μM, E. coli; type: cell-based; settings: Escherichia coli
Experimental: as §3, with “Plates were washed with water again and the remaining stain was solubilized with 200 μL of 95% ethanol. A sample of 125 μL of solubilized CV stain from each well was transferred to the corresponding wells of a polystyrene microtiter dish.” left out, “out. […]” for “out.”

[1] = system: pre-formed A. baumannii biofilms; assay: Static bacterial biofilm dispersion assay, A. baumannii; type: cell-based; settings: Acinetobacter baumannii
Experimental: (§4) General Static Bacterial Biofilm Dispersion Assay Procedure for A. baumannii, P. aeruginosa and S. aureus: Dispersion assays were performed by taking an overnight culture of bacterial strain and subculturing it at an OD600 of 0.01 into the necessary growth liquid medium. The resulting bacterial suspension was aliquoted (100 μL) into the wells of a 96-well PVC microtiter plate. Plates were then wrapped in GLAD Press n′ Seal® followed by an incubation under stationary conditions at an ambient temperature. After 24 hours, the media was discarded from the wells and the plates were washed thoroughly with tap water. Predetermined concentrations of the compound were then made in the same medium used to initially grow the biofilms and then aliquoted (100 μL) into the wells of the 96-well PVC microtiter plate with the established biofilms. Plates were then wrapped in GLAD Press n′ Seal® and incubated under stationary conditions at 37° C. After 24 hours, the media was discarded from the wells and the plates were washed thoroughly with tap water. Plates were then stained with 100 μL of 0.1% solution of crystal violet (CV) and then incubated at room temperature for 30 minutes. Plates were then washed with tap water again and the remaining stain was solubilized with 200 μL of 95% ethanol. Biofilm dispersion was quantitated by measuring the OD540 for each well by transferring 125 μL of the solubilized CV stain into a polystyrene microtiter dish for analysis.

[2] = system: A. baumannii planktonic growth; assay: Planktonic growth curves and colony counts, A. baumannii; type: cell-based, Acinetobacter baumannii; settings: FIGS. 3A, 4A
Experimental: (§5) The OD600 was recorded at 1, 3, 4, 5, 6 and 24 hours.
(§6) General Colony Count Procedure for A. baumannii, P. aeruginosa, B. bronchiseptica and S. aeureus: Colony counts were performed by incubating either bacterial strain in the presence and absence of the test compound at 37° C. in culture tubes until the sample with the absence of the test compound reached an OD600 of 0.40 from a starting OD600 of 0.01. This typically took three to four hours. Once the OD600 of approximately 0.40 was observed, 100 μL were taken from each culture tube from which serial dilutions were made. Then, 10 μL were removed from each serial dilution and plated out on a square gridded petri-dish followed by 16 hours of incubation at 37° C. period (48 hours for B. bronchiseptica) to grow countable colonies. Viable bacteria were quantified through employment of the track-dilution method (Jett et al., Bio Techniques. 1997, 23, 648-650).

[3] = system: P. aeruginosa PAO1 biofilms; assay: Static bacterial biofilm inhibition assay (crystal violet), PAO1; type: cell-based; settings: Pseudomonas aeruginosa
Experimental: as §1, §2

[4] = system: P. aeruginosa PA14 biofilms; assay: Static bacterial biofilm inhibition assay (crystal violet), PA14; type: cell-based; settings: Pseudomonas aeruginosa
Experimental: as §1, §2

[5] = system: B. bronchiseptica Rb50 biofilms; assay: Static bacterial biofilm inhibition assay (crystal violet), Rb50; type: cell-based; settings: Bordetella bronchiseptica, RB50BIOFILMS
Experimental: as §1, §2

[6] = system: Staphylococcus aureus biofilm; assay: Static bacterial biofilm inhibition assay (crystal violet), S. aureus; type: cell-based
Experimental: as §2

[7] = system: pre-formed P. aeruginosa PAO1 biofilms; assay: Static bacterial biofilm dispersion assay, PAO1; type: cell-based; settings: Pseudomonas aeruginosa
Experimental: as §4

[8] = system: pre-formed P. aeruginosa PA14 biofilms; assay: Static bacterial biofilm dispersion assay, PA14; type: cell-based; settings: Pseudomonas aeruginosa
Experimental: as §4

[9] = system: pre-formed B. bronchiseptica Rb50 biofilms; assay: Static bacterial biofilm dispersion assay, Rb50; type: cell-based; settings: Bordetella bronchiseptica
Experimental: as §4
General Static Bacterial Biofilm Dispersion Assay Procedure for B. bronchiseptica: This procedure is identical to the general dispersion procedure described above except that initial biofilm formation in the absence of the test compound was carried out at 37° C.

[10] = system: pre-formed S. aureus biofilms; assay: Static bacterial biofilm dispersion assay, S. aureus; type: cell-based; settings: Staphylococcus aureus
Experimental: as §4

[11] = system: A. baumannii, PAO1, PA14, Rb50, S. aureus (each bacterial strain); assay: Planktonic growth curves and colony counts, each bacterial strain; type: cell-based; settings: each bacterial strain grown in the presence of compound
Experimental: as §5, §6

SMILES | IC50 (A. baumannii biofilms; Acinetobacter baumannii) | EC50 [1] | IC50 [3] | IC50 [5] | EC50 [7] | EC50 [8] | EC50 [9] | EC50 [10] | bactericidal / microbicidal activity (colony counts and growth curves) [11] | other results
Nc1ncc[nH]1 [2-Aminomidazole, reference compound] |  |  |  |  |  |  |  |  |  | activity against A. baumannii biofilm development (A. baumannii biofilms; up to 800 μM (highest concentration tested)): devoid of activity
CCCCCCCCCCNC(=O)Cn1cc(CCCc2c[nH]c(N)n2)nn1 [2-{4-[3-(2-amino-1H-imidazol-4-yl)-propyl]-[1,2,3]triazol-1-yl}-N-decyl-acetamide hydrochloride] |  |  |  |  |  |  |  |  |  | inhibition at 100 µM (MRSA): 99 ± 1%; inhibition at 100 µM (E. coli): 62.7 ± 0.4%
CCCCCCCCCCCCCCNC(=O)Cn1cc(CCCc2c[nH]c(N)n2)nn1 [2-{4-[3-(2-amino-1H-imidazol-4-yl)-propyl]-[1,2,3]triazol-1-yl}-N-tetradecyl-acetamide hydrochloride] |  |  |  |  |  |  |  |  |  | inhibition at 100 µM (MRSA): 90.8 ± 8%; inhibition at 100 µM (E. coli): 35.6 ± 0.6%
C/C(=C\c1ccccc1)Cn1cc(CCCc2c[nH]c(N)n2)nn1 [Compound 6, 5-{3-[1-(2-Methyl-3-phenyl-allyl)-1H-[1,2,3]triazol-4-yl]-propyl}-1H-imidazol-2-ylamine hydrochloride] | 12 µM | 400 µM |  |  |  |  |  |  |  | effect on planktonic growth (growth curves and colony counts) [2]: no effect on planktonic growth
C/C(=C\c1ccccc1)Cn1cc(CCc2c[nH]c(N)n2)nn1 [Compound 7, 4-{2-[1-(2-Methyl-3-phenyl-allyl)-1H-[1,2,3]triazol-4-yl]-ethyl}-1H-imidazol-2-ylamine hydrochloride] | 220 µM |  |  |  |  |  |  |  |  | 
C/C(=C\c1ccccc1)Cn1cc(Cc2c[nH]c(N)n2)nn1 [Compound 8, 4-[1-(2-Methyl-3-phenyl-allyl)-1H [1,2,3]triazol-4-ylmethyl]-1H-imidazol-2-ylamine hydrochloride] |  |  |  |  |  |  |  |  |  | inhibition of A. baumannii biofilm development (A. baumannii biofilms; (highest concentration tested)): < 50%
C/C(=C\c1ccccc1)Cn1cc(CCCn2ccnn2)nn1 [Compound 9, 1-(2-Methyl-3-phenyl-allyl)-4-(3-[1,2,3]triazol-1-yl-propyl)-1H-[1,2,3]triazole] |  |  |  |  |  |  |  |  |  | inhibition at 800 µM (A. baumannii biofilms; Acinetobacter baumannii, at the highest concentration studied (800 μM), read-out: inhibition of A. baumannii biofilm development): < 30%
C/C(=C\c1ccccc1)Cn1cc(CCCCc2cnc(N)[nH]2)nn1 [Compound 10, 4-{4-[1-(2-Methyl-3-phenyl-allyl)-1H-[1,2,3]triazol-4-yl]-butyl}-1H-imidazol-2-ylamine] | 2.8 µM | 210 µM | 15 µM | 23 µM | 81 µM | 35 µM | 59 µM | 16 µM | not due to bactericidal activity | IC50 ([4]; P. aeruginosa PA14): 4000 nM; IC50 [6]: 7000 nM
C/C(=C\c1ccccc1)Cn1cc(CCCCCc2c[nH]c(N)n2)nn1 [Compound 11, 4-{5-[1-(2-Methyl-3-phenyl-allyl)-1H-[1,2,3]triazol-4-yl]-pentyl}-1H-imidazol-2-ylamine hydrochloride] | 0.98 µM | 120 µM | 5.6 µM | 9.5 µM | 11 µM | 22 µM | 55 µM | 2.6 µM | not due to microbicidal activity | IC50 ([4]; PA14, value in nM): 530 nM; IC50 ([6]; S. aureus, value in nM): 810 nM
C/C(=C\c1ccccc1)Cn1cc(CCCCCCc2c[nH]c(N)n2)nn1 [Compound 12, 4-{6-[1-(2-Methyl-3-phenyl-allyl)-1H-[1,2,3]triazol-4-yl]-hexyl}-1H-imidazol-2-ylamine hydrochloride] | 6.8 µM | 36 µM | 2.7 µM | 70 µM | 51 µM | 48 µM | 75 µM | 37 µM | not due to microbicidal activity | IC50 ([4]; P. aeruginosa PA14): 22000 nM; IC50 [6]: 4600 nM
